Values joined by “and” are separate entries in the source; they are usually repeats but may differ in a detail not shown here. Identical values can stand only once. Active and inactive are the calls of the source.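 How the source made its calls: active means compounds giving half or more protection of infected cells from virus-caused growth loss, again on retest; inactive means the rest.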
Tested on: CEM cells HIV-1 protection, formazan growth assay
Assay: NCI AIDS Antiviral Assay
Conditions: for IC50: measured here: growth of uninfected CEM cells
How it was run: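 Protection of CEM cells against HIV-1 measured as cell growth via soluble formazan read-out, with five concentrations tested on both infected and uninfected cells; failure to protect may reflect toxicity.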

| Compound | EC50 | IC50 | outcome |
| --- | --- | --- | --- |
| Cc1ccc(C(=O)N2c3ccccc3N(C)n3cccc3C2CC(=O)O)cc1 (stereo not given) | > 661 µM | 148 µM | – |
| CC1CNC(c2ccc(NC(=O)Nc3cc(C(=O)Nc4ccc(C5=NC(C)CN5)cc4)ccc3C(=O)Nc3ccc(C4=NC(C)CN4)cc3)cc2)=N1 (stereo not given) | > 100 µM | > 100 µM | – |
| COC1(CC[C@H](C)COC2OC(CO)C(O)C(O)C2O)O[C@H]2C[C@H]3[C@@H]4CC=C5C[C@@H](OC6OC(CO)C(O)C(OC7OC(CO)C(O)C(O)C7O)C6OC6OC(C)C(O)C(O)C6O)CC[C@]5(C)[C@H]4CC[C@]3(C)[C@H]2[C@@H]1C (stereo not given in full) | > 200 µM | 3.89 µM | – |
| COCN1C(=O)[C@@H]2CCCN2C(=O)c2ccc(N)cc21 | > 200 µM | > 200 µM | – |
| CC1(C)OC(=O)C(=Cc2ccccc2Br)C(=O)O1 | > 417 µM | 1.29 µM | – |
| N#Cc1c(C#N)c(-c2ccco2)n(/N=C/c2ccco2)c1N | > 200 µM | > 200 µM | – |
| CCCCCCCCCCCC1=C(NCCN)C(=O)C=C(NCCN)C1=O | > 2 µM | > 2 µM | – |
| CCOC(=O)c1ccc(C(=O)n2ccnc2)[nH]1 | > 200 µM | > 200 µM | – |
| CCOC(=O)Cn1c2ccccc2c(=O)c2cc(C)c(C)c(C#N)c21 | > 21.4 µM | > 21.4 µM | – |
| O=[N+]([O-])/C(C=Nc1ccccc1)=C/Nc1ccccc1 | > 200 µM | 105 µM | – |
| NCCCN1CCN(CCCNc2ccc3nnn4c5ccccc5c(=O)c2c34)CC1 | > 100 µM | 5.89 µM | – |
| COc1cccc2ccc3c(c12)C(O)OC31CCc2c(C)cccc21 (stereo not given) | > 85.1 µM | 42.7 µM | – |
| COC(=O)CCCC=C(c1cc(Cl)c(OC)c(C(=O)OC)c1)c1cc(Cl)c(OC)c(C(=O)OC)c1 | 1.62 µM | 21.4 µM | – |
| O=C1/C(=C/c2cccc(F)c2)CCCc2ccccc21 | > 200 µM | 19.5 µM | – |
| CC(C)(C)N/N=C(\C(=O)Nc1ccc([N+](=O)[O-])cc1[N+](=O)[O-])c1nc2ccc([N+](=O)[O-])cc2[nH]c1=O | > 14.5 µM | > 14.5 µM | – |
| COc1ccc2oc3c(C)cc4c(OC)nnc(OC)c4c3c2c1 | > 200 µM | 12.6 µM | – |
| Sc1nnc(-c2ccccc2Nc2ccccc2-c2nnc(S)n2-c2ccccc2)n1-c1ccccc1 | > 87.1 µM | 25.1 µM | – |
| Cc1nc2nnc(C)n2c2c1C(=O)Nc1ccccc1N2 | > 200 µM | > 200 µM | – |
| CCc1c(O)n(Cc2ccccc2)c(=S)n(Cc2nc3ccccc3[nH]2)c1=O | > 200 µM | > 200 µM | – |
| CC(C)(C)C1COP(=O)(c2ccccc2)N(c2ccccc2)C1 (stereo not given) | > 200 µM | 38 µM | – |

| Compound | EC50 | IC50 | outcome |
| --- | --- | --- | --- |
| Cc1cn(C(C)OCCN2C(=O)c3ccccc3C2=O)c(=O)[nH]c1=O (stereo not given) | > 200 µM | > 200 µM | – |
| Cc1ccc(C(CC(=O)C(C)(C)CN2CCCCC2)SCCS(=O)(=O)O)cc1 (stereo not given) | > 200 µM | 3.63 µM | – |
| O=C(OCc1ccccc1)/C(c1ccccc1)=[N+]1/C(=S)Nc2ccc([N+](=O)[O-])cc21 | > 200 µM | 105 µM | – |
| NS(=O)(=O)c1ccc(NNC(=O)c2cccc3c(=O)c4ccccc4[nH]c23)cc1 | > 200 µM | 58.9 µM | – |
| COC(=O)[C@@H]1CSC(=S)N1C(=O)C[C@@H]1CC=CC[C@@H]1CC(=O)Sc1ccccc1 | – | – | inactive |
| COc1ccc(NCc2cccc3c(=O)c4ccc(Cl)cc4oc23)cc1 | 3.47 µM | 25.1 µM | – |
| COC(=O)CC[N+]1([O-])CC1 | > 200 µM | > 200 µM | – |
| O=C(N/N=C\c1ccncc1)c1ccncc1 | > 200 µM | > 200 µM | – |
| Cn1c(=O)c2c(nc3[nH]c(=O)c(Br)cn32)n(C)c1=O | > 100 µM | 20.4 µM | – |
| CCn1c2c(c3ccccc31)CCSC2(C)CCN(C)C (stereo not given) | – | – | inactive |
| CC12CCc3ccccc3C1=NNC(=O)C2 (stereo not given) | > 170 µM | > 170 µM | – |
| CCOC(=O)CCCc1cc[c]([Sb](=[O])([OH])[OH])cc1 | > 200 µM | 72.4 µM | – |
| COC(=O)NC1=Nc2ccccc2N(C(=O)Oc2ccccc2)S1 | > 75.9 µM | 9.33 µM | – |
| [N-]=[N+]=Nc1c(Cc2ccccc2)c(=O)oc2ccccc12 | > 200 µM | 32.4 µM | – |
| CC(=O)Oc1ccc2cc(Oc3ccc(Cl)c(Cl)c3)c(=O)oc2c1 | > 200 µM | 85.1 µM | – |
| COc1cccc(OC)c1C(=O)OCc1ccccc1 | > 95.5 µM | > 95.5 µM | – |
| COC(=O)C1CSC(c2csc(CCN)n2)=N1 (stereo not given) | – | – | inactive |
| C=CCOCn1cnc2c(N)ncnc21 | – | – | inactive |
| CC(C)OP(=O)(OC(C)C)C(Nc1cccc(C(F)(F)F)c1)c1ccccc1 (stereo not given) | > 200 µM | 33.9 µM | – |
| CCOC(=O)C1(Cc2ccccc2)Cc2cc3c(cc2C1)CCC3 | > 200 µM | 33.9 µM | – |

| Compound | EC50 | IC50 | outcome |
| --- | --- | --- | --- |
| Cc1ccc(S(=O)(=O)OC[C@H]2CC=CC[C@H]2COS(=O)(=O)c2ccc(C)cc2)cc1 | > 200 µM | > 200 µM | – |
| O=C(O)CCCCCCC(=O)O | > 1450 µM | > 1450 µM | – |
| Cc1nc(N)nc(N)c1N1CCN(c2ccc(C#N)cc2)CC1 | > 100 µM | > 100 µM | – |
| Cn1c2cc(O)cc(O)c2c(=O)c2c([N+](=O)[O-])cccc21 | > 141 µM | > 141 µM | – |
| CCCCC(C(=O)C(=O)NC1C2CC3CC(C2)CC1C3)C(=O)C(C)C (stereo not given) | > 74.1 µM | > 74.1 µM | – |
| COc1ccc(C2Oc3ccccc3C(=O)C2N)cc1 (stereo not given) | > 200 µM | 93.3 µM | – |
| CCCc1c[nH]c(-c2ccc(-c3cc(CCC)c(C=O)[nH]3)s2)c1 | > 11.5 µM | > 11.5 µM | – |
| CCOC(=O)c1nnsc1NC(=O)Nc1ccc(Cc2ccc(NC(=O)Nc3snnc3C(=O)OCC)cc2)cc1 | > 200 µM | > 200 µM | – |
| COc1ccc2nc3c([N+](=O)[O-])ccc4c3c(c2c1)NCCN4CCO | > 200 µM | 0.398 µM | – |
| O=c1c2ccccc2ncn1COCc1ccccc1 | > 200 µM | > 200 µM | – |
| BrC(Br)([P+](c1ccccc1)(c1ccccc1)c1ccccc1)[P+](c1ccccc1)(c1ccccc1)c1ccccc1 | – | – | inactive |
| CCC(C)C(NC(=O)c1ccccc1SC(=O)OCCCCCl)C(N)=O (stereo not given) | 2.75 µM | > 200 µM | – |
| Cc1cc(NCCCCCCCCNc2cc(C)nc3cc(N)ccc23)c2ccc(N)cc2n1 | > 8.13 µM | 4.68 µM | – |
| O=NN1C(c2ccccc2)CC(=NO)CC1c1ccccc1 (stereo not given) | > 200 µM | 129 µM | – |
| CN1C(=O)C2CCCC(=O)N2c2cccnc21 (stereo not given) | > 200 µM | > 200 µM | – |
| Cc1cc2c(C(C)C)c(O)c(O)c(C=NC(C)c3ccccc3)c2c(O)c1-c1c(C)cc2c(C(C)C)c(O)c(O)c(C=NC(C)c3ccccc3)c2c1O (stereo not given) | > 7.24 µM | > 7.24 µM | inactive |
| CC1=CO[C@@H]2O[C@@]3(C)CC[C@H]4[C@H](C)CC[C@@H]1[C@@]24O3 | > 200 µM | > 200 µM | – |
| NCCN.O=C([O-])[O-].O=C([O-])[O-].[Co+3].[K+] | > 646 µM | 295 µM and 339 µM | – |
| CC1(C)O[C@@H]2[C@@H]3OC(=O)C[C@@H]3[C@@H](COCc3ccccc3)[C@@H]2O1 | > 200 µM | > 200 µM | – |
| Cn1c(=O)nc2n(-c3ccc(Cl)c(C(F)(F)F)c3)c3ccccc3nc-2c1=O | – | – | inactive |
